Results reported in paper PMC9040635 (RSC Advances, 2021).

How the values were obtained:
[1] = test system: formalin-induced rat paw oedema; assay: Formalin-induced hind rat paw oedema assay; format: in vivo; settings: low dose 10 mg kg^−1 b.w, intraperitoneal, mean ± SEM n = 5
[2] = target: T1, COX-1 (Ovis aries, UniProt P05979); assay: COX-1 inhibitory assay; format: biochemical; settings: Cyclooxygenase-1; ΔGexp = −RT ln IC50, T = 300 K
T1 sequence (P05979 25-600): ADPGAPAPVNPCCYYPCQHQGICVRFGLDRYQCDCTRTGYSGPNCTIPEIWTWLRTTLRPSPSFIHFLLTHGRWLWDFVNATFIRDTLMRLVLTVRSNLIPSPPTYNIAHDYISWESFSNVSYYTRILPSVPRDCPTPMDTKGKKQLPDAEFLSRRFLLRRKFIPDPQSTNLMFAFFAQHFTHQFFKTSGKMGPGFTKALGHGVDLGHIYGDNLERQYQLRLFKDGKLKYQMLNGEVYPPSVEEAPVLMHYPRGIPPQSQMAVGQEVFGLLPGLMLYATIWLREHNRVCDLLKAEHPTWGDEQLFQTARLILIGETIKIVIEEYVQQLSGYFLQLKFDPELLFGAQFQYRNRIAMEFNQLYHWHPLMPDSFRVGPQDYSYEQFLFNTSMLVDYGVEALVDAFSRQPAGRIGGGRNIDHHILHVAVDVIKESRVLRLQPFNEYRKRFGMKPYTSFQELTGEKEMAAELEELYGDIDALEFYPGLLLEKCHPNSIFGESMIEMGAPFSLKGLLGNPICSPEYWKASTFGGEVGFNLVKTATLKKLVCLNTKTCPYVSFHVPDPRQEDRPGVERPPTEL

| SMILES | percentage reduction of rat paw oedema ([1]; 1 h) [%] | percentage reduction of rat paw oedema ([1]; 2 h) [%] | percentage reduction of rat paw oedema ([1]; 4 h) [%] | ΔGexp (experimental binding free energy) [2] [kcal/mol] |
| --- | --- | --- | --- | --- |
| Cc1ccc(-c2cc(C(F)(F)F)nn2-c2ccc(S(N)(=O)=O)cc2)cc1 [Celecoxib] | 24.7 ± 2.2 | 31.4 ± 1.8 | 38.5 ± 1.7 |  |
| COc1ccc2c(c1)c(CC(=O)O)c(C)n2C(=O)c1ccc(Cl)cc1 [Indomethacin] | 23.3 ± 2.2 | 31.0 ± 3.0 | 37.4 ± 2.8 | -11.0 |
